Data reported in ChEMBL document CHEMBL1158811, “Echinamines A and B, first aminated hydroxynaphthazarins from the sea urchin Scaphechinus mirabilis” (J Nat Prod, 2005).
pEC50: −log10 of the molar value.

tested on: Radical scavenging activity; test: Antioxidant activity assessed as DPPH radical scavenging activity; format: functional

| pEC50 | Compound |
| --- | --- |
| 5.00 | CCc1c(O)c(O)c2c(c1O)C(=O)C(O)=C(N)C2=O [ECHINAMINE A] |
| 5.00 | O=C1C(O)=C(O)C(=O)c2c(O)c(O)cc(O)c21 [SPINOCHROME D] |
| 5.00 | CCc1c(O)c(O)c2c(c1O)C(=O)C(N)=C(O)C2=O [ECHINAMINE B] |
| 5.00 | CCC1=C(O)C(=O)c2c(O)c(O)c(O)c(O)c2C1=O [ECHINOCHROME A] |
